Values after ≈ are worked out from the molar mass of the structure shown.
Legend:
[1] = tested on: Leishmania amazonensis promastigotes; assay: Promastigote growth inhibition, counting in Neubauer chamber (IC50); format: cell-based, Leishmania amazonensis (MHOM/BR/1977/LTB0016); conditions: Leishmania amazonensis; 24 h incubation, growth inhibition by counting
Procedure: Leishmania growth was evaluated after 24 h of incubation at 25°C with the compounds under the same conditions as previously mentioned. Then, 10 µL of the content of each well was added to a 990 µL (1/100) of formalin solution (2%), and the parasites were counted in a Neubauer chamber. The inhibitory concentration (IC50) of promastigotes was calculated by comparing with untreated promastigotes in culture medium. The results were evaluated by linear regression of the inhibition percentage. The selectivity index (SI CC50/IC50) was calculated by the ratio of toxicity concentration to macrophage vs inhibitory concentration to the parasite growth after 24 h incubation ([27]). All assays were performed in triplicate and repeated at least three times.

[2] = tested on: Leishmania amazonensis promastigotes; assay: Viability assay of promastigotes, XTT colorimetric method (LD50); format: cell-based, Leishmania amazonensis (MHOM/BR/1977/LTB0016); conditions: 25°C
Procedure: The viability of L. amazonensis (MHOM/BR/1977/LTB0016) promastigotes was evaluated using the XTT colorimetric method, which consists in the XTT salt degradation by the mitochondria forming formazan crystals. Promastigote forms (2×10^7 parasites/mL) from a culture in logarithmic growth phase were incubated with lapachol and β-lapachone diluted in 199 culture medium. The drugs were diluted in series, in a ratio of two, starting from 1/2, on a 96-well cell culture plate (TPP™ test plate, Switzerland). The compounds were tested at concentrations from 204.4 to 0.40 µg/mL (lapachol) and 157.5 to 0.31 µg/mL (β-lapachone). After 24, 48, and 72 h of incubation at 25°C, 100 μL of the XTT solution (500 μg/mL) activated with PMS (50 μg/mL) were added to each well and incubated for 4 h at 37°C. The result was measured by absorbance, determined by spectrophotometry (450/650 nm filter, VersaMax™ ELISA microplate reader, USA). The lethal dose (LD50) was defined as the concentrations of the compounds that reduced survival of L. amazonensis by 50% compared to untreated parasites in culture medium. AmB (1.96 to 0.25 µg/mL) was used as positive control of leishmanicidal activity. The therapeutic selectivity index (TSI CC50/LD50) was calculated by the ratio of toxicity to macrophage vs toxicity to parasites after 24 h incubation ([28]). All assays were performed in triplicate and repeated at least three times.

[3] = tested on: Leishmania amazonensis promastigotes; assay: Change in cell volume and morphology of the parasites (flow cytometry FSC-H/SSC-H, SEM); format: cell-based; conditions: 24 h; lapachol 76.62 µg/mL, β-lapachone 1.63 µg/mL, H2O2 2 mM; untreated 93.14%
Procedure: Promastigote forms (2×10^7 cells) of L. amazonensis untreated (negative control) or treated with 76.62 µg/mL of lapachol and 1.63 µg/mL of β-lapachone were analyzed to observe changes in cell morphology of the parasites induced by the treatment after 24 h of incubation. […] Subsequently, the parasites were analyzed using a BD FacsCalibur flow cytometer (Becton Dickinson, USA) and CellQuest Pro software (Joseph Trotter, Scripps Research Institute, USA), and 10,000 events were acquired. Dot plots were generated, the forward scatter (FSC-H) parameter was analyzed as presenting a correlation with the cell volume.
Scanning electron microscopy (SEM) also was performed to analyze morphological changes in cell surface topography. After 24 h of treatment, the parasites were centrifuged at 576 g for 10 min, and the samples were fixed in 2.5% glutaraldehyde and 0.1 M sodium cacodylate buffer. Poly-L-lysine was used to promote the adhesion of fixed parasites on coverslips. Promastigotes were dehydrated with increasing ethanol concentrations (30-100%), submitted to critical point drying, and metalized with gold for visualization on a Shimadzu 55-550 (Japan) microscope.

[4] = tested on: Leishmania amazonensis promastigotes; assay: Mitochondria membrane potential (ΔΨm), Rh123 flow cytometry; format: cell-based; conditions: for Reduction in ΔΨm: lapachol 76.62 µg/mL, β-lapachone 1.63 µg/mL, H2O2 2 mM; for Variation Index (VI) of Rh123 fluorescence, (MT−MC)/MC: lapachol 76.62 μg/mL, β-lapachone 1.63 μg/mL, PC 2 mM
Procedure: The ΔΨm was determined using on BD FacsCalibur™ flow cytometer and CellQuest Pro software, with a total of 10.000 events acquired, using a mitochondrial-specific green-fluorescent dye Rh123 ([31]). Briefly, L. amazonensis (2×10^7 parasites/mL) were incubated with lapachol (76.62 µg/mL) and β-lapachone (1.63 µg/mL) for 1, 4, and 24 h at 25°C. After washed with PBS, the parasites were incubated with 5 μg/mL Rh123 for 15 min. After the incubation time, the cells were washed and suspended in PBS for additional incubation of 30 min for analysis. The percentage of fluorescence of Rh123, was determined by the (MT/MC)*100 equation, with MT representing the median fluorescence of the treated parasites and the MC the median fluorescence of negative controls. Alteration in ΔΨm was quantified using an index of variation (IV) obtained by the equation IV = (MT - MC)/MC, where negative IV values correspond to depolarization of the mitochondrial membrane. H2O2 (2 mM) was used as a positive control ([32]).

Row | SMILES | IC50 [1] [µg/mL] | Promastigotes LD50 ([2]; 24 h incubation) [µg/mL] | Promastigotes LD50 ([2]; 48 h incubation) [µg/mL] | Promastigotes LD50 ([2]; 72 h incubation) [µg/mL] | Percentage population of the lower left quadrant gate (FSC-H/SSC-H, cell volume) [3] [%] | Reduction in ΔΨm ([4]; 1 h) [%] | Variation Index (VI) of Rh123 fluorescence, (MT−MC)/MC ([4]; 1 h) | Variation Index (VI) of Rh123 fluorescence, (MT−MC)/MC ([4]; 4 h) | Reduction in ΔΨm ([4]; 24 h) [%] | Variation Index (VI) of Rh123 fluorescence, (MT−MC)/MC ([4]; 24 h)
1 | C[C@@H]1[C@H](O)[C@@H](C)/C=C/C=C/C=C/C=C/C=C/C=C/C=C/[C@H](O[C@@H]2O[C@H](C)[C@@H](O)[C@H](N)[C@@H]2O)C[C@@H]2O[C@](O)(C[C@@H](O)C[C@@H](O)[C@H](O)CC[C@@H](O)C[C@@H](O)CC(=O)O[C@H]1C)C[C@H](O)[C@H]2C(=O)O [AmB, Amphotericin B, reference compound] | 0.632 ± 0.12 (≈ 0.684 µM) | 0.97 ± 0.09 | 1.65 ± 0.02 | 0.80 ± 0.03 | – | – | – | – | – | –
2 | OO [H2O2, reference compound] | – | – | – | – | 49.51 | 97 | -0.97 | -0.98 | 98 | -0.98
